| Structure (SMILES) | melting point [°C] |
| --- | --- |
| COc1ccc(N2CCCN(/C(C)=C(/C#N)C(N)=S)CC2)cn1 | 159 to 161 |
| CCC1=CC(c2cccc([N+](=O)[O-])c2)C2=C(CCCC2=O)N1 (centres undefined) | 182 to 184 |
| Cc1cc(SC(C)C)c(NC(=O)CCCSc2nc3c(C)c(Cl)cc(C(C)C)c3o2)c(SC(C)C)n1 | 141 to 143 |
| CON=Cc1nn(-c2c(Cl)cc(C(F)(F)F)cc2Cl)c(N)c1S(C)=O (centres undefined) | 80 |
| Cc1cccc2c1C(=O)N1CC[C@H]1c1c(C(=O)OC3CCCCC3)ncn1-2 | 199 to 200 |
| CC1(C)CC(=O)c2c(-c3cncs3)cn(-c3ccccn3)c2C1 | 167 to 169 |
| CCCCCCCCCCCCCCCCCC(=O)OC(CCc1cc(C(C)(C)C)c(O)c(C(C)(C)C)c1)CCc1cc(C(C)(C)C)c(O)c(C(C)(C)C)c1 | 52 to 54 |
| CC1(C)C(Cl)C(=O)C1CC(Cl)(Cl)Cl (centres undefined) | 56 to 57 |
| CCCN1CCC(c2c(O)cc(O)c3c(=O)cc(-c4ccccc4Cl)oc23)C1CO (centres undefined) | 94 to 96 |
| O=C(C1NCCc2sccc21)N1CCCC1 (centres undefined) | 114 to 116 |
| CCCCCCCCCCCCCCOc1ccc(CNC(=O)NCc2ccccn2)cc1 | 108 to 109 |
| CCOC(=O)c1c(OCc2ccccc2)cc(C(F)(F)F)nc1C(F)(F)F | 56 to 58.5 |
| COc1cc(Br)nc(NC(=O)NS(=O)(=O)c2cccc3c2SCC3)n1 | 238 to 240 |
| CN1C(=O)N(Cc2ccccc2)CC1(CCO)c1ccc(Cl)c(Cl)c1 (centres undefined) | 118 |
| Cc1nc2ccc(Cl)cc2c(=O)n1C1CCC(=O)NC1=O (centres undefined) | 276 to 278 |
| O=C(Cc1ccc(F)cc1F)c1ccc(Cl)nc1 | 93 to 95 |
| CS(=O)(=O)CCC(C#N)CC#N (centres undefined) | 123 to 125 |
| CN1CC(O)N(c2cc(C(C)(C)C)on2)C1=O (centres undefined) | 173 to 177 |
| COc1c(C)c2c(c(O)c1C/C=C(\C)C(O)C(C)(C)C(=O)O)C(=O)OC2 (centres undefined) | 180 to 181 |
| CCCCNC(=O)N1CC(Oc2ccc(C(F)(F)F)cc2)C1 | 132 to 134 |
| CCN(CCCc1c[nH]c2c(OC)cccc12)C1COc2c(F)ccc(C(N)=O)c2C1 (centres undefined) | 148 to 153 |
| FC(F)(F)c1ccc(-c2ncc(Br)cn2)cc1 | 167 |
| Cc1c(O)ccnc1CSc1nc2ccc(F)cc2[nH]1 | 232 to 233 |
| O=C(c1ccccc1)c1cc([N+](=O)[O-])ccc1N(Cc1ccccc1)C(=O)CBr | 149 |
| O=C1N(Cc2cnc(O)nc2)c2ccccc2C12COc1cc3c(cc12)OCCO3 (centres undefined) | > 250 |
| CCCc1ncc(CN2C(=O)c3ccccc3C2=O)s1 | 72 |

| Structure (SMILES) | melting point [°C] |
| --- | --- |
| N#Cc1ccc2c(c1)S(=O)(=O)c1ccc(F)cc1C2=O | 260 |
| CN1C(=O)CCC1(O)c1ccc(Cl)c(S(=O)(=O)Nc2cc(C(C)(C)C)c(O)c(C(C)(C)C)c2)c1 (centres undefined) | 120 to 130 |
| Cn1c(=O)c(-c2ccc(Cl)cc2Cl)cc2c3cc(-c4nc(NC(=O)C5CC5)no4)ccc3n(C)c21 | 292 to 295 |
| O=[N+]([O-])c1ccc(SSc2nccc(O)n2)c(C(Cl)(Cl)Cl)c1 | 174 |
| CCN1CCc2nc(Nc3cc(-c4cc(F)cc(C5NCCc6c5sc5c6CC(C)(C)C5)c4CO)cn(C)c3=O)ccc2C1 (centres undefined) | 134 to 135 |
| CNC(=NCCSCc1[nH]cnc1C)NS(C)(=O)=O | 133 to 134 |
| CCNC(=O)Nc1cc(C(=O)OC)c(O)c2ncc(Cc3ccc(F)cc3)cc12 | 280 to 282 |
| CCOC(=O)c1cn(NC=O)c2nc(C)ccc2c1=O | 214 |
| O=C(NC1CCCCC1)c1c(O)c2cscc2[nH]c1=O | 244 |
| CC(C)(C)OC(=O)N1CCC(C#N)(c2ccc(Cl)c(Cl)c2)CC1 | 142 to 145 |
| OCc1cccnc1N1CCN(c2nc3cc(C(F)(F)F)cc(Cl)c3[nH]2)CC1 | 252 |
| CC(C)C1CC(=O)C(C(=O)NS(=O)(=O)c2ccccc2)C(=O)C1 (centres undefined) | 112 to 114 |
| CCOc1cc(N)c(Cl)cc1C(=O)NCC1CN(Cc2ccc(F)cc2)CCO1 (centres undefined) | 151 to 153 |
| O=C(O)Cc1ccc(CN2CCN(C(c3ccccc3)c3ccccc3)CC2)cc1 | 183 to 185 |
| CC(F)C1C(=O)NC1CC(=O)OCc1ccccc1 (mixture of isomers) | 40 to 43 |
| CN1C(=O)[C@H](NC(=O)Nc2ccc3c(c2)CCC3)N=C(c2ccccc2)c2ccccc21 | 156 to 158 |
| CC1CCC(N(CC2CCCC(CN(C(=O)Nc3ccc(N(C)C)cc3)C3CCC(C)CC3)C2)C(=O)Nc2ccc(N(C)C)cc2)CC1 (centres undefined) | 106 to 110 |
| CCCC(=O)NCC1Cc2ccc(-c3ccc(=O)[nH]n3)cc2C1 (centres undefined) | 204 to 205 |
| COc1ccc(C(O)CCN2CC=C(c3ccc(Cl)cc3)CC2)c(OC)c1 (centres undefined) | 112 to 114 |
| N#Cc1cnc2cc(C#CCCCN3CCOCC3)ccc2c1Nc1ccc(Cl)cc1Cl | 131 to 133 |
| COc1c(C)cnc(CS(=O)c2nc3ncccc3[nH]2)c1C (centres undefined) | 169 to 170 |
| O=C(CN(Cc1ccc(OCc2ccccc2)cc1)C(=O)[C@H](Cc1c[nH]cn1)NC(=O)OCc1ccccc1)NCCCCc1ccccc1 | 58 to 61 |
| COCCCNS(=O)(=O)NC(=O)/C(C)=C/c1ccc(OC(C)C)cc1Oc1ncc(C(F)(F)F)cc1Cl | 120 to 121 |
| COC(=O)C(Cc1cc([N+](=O)[O-])ccc1Cl)C(=O)OC | 72 to 74 |
| O=C(NC1CCOCC1)NC12CC3CC(CC(C3)C1)C2 | 239 to 242 |
| Cc1cc(Cn2nc(C(F)(F)C(F)(F)F)nc2C(F)(F)F)ccc1NC(=O)c1cccc(Cl)c1C(=O)NC(C)(C)C=NO | 203 to 206 |

Second part, the molecule after the results:

| melting point [°C] | Structure (SMILES) |
| --- | --- |
| 188 to 191 | Cn1c(NCc2cccc(NC(=O)C=Cc3ccccc3Cl)c2)nc2ccccc21 |
| 101 to 103 | CCOC(=O)C(=O)C1C(=O)c2cccc3cccc1c23 (centres undefined) |
| 130 to 132 | CN(C=CC(=Nc1ccccc1)Oc1ccccc1)c1ccccc1 |
| 101 to 103 | CS(=O)(=O)N(Cc1ccccc1)c1ccc(C(=O)CBr)cc1 |
| 95 to 100 | COc1cc2c(cc1OC)C(Oc1ccccc1)CN(CCCOc1ccccc1)CC2 (centres undefined) |
| 235 | CN1c2nnnn2-c2ccc(C(O)(c3ccc(Cl)cc3)c3cncn3C)cc2C1c1cccc(Cl)c1 (centres undefined) |
| 157 to 160 | CCc1ccc(N2CCN(c3c(C)c4c(c(OC)c3C)OC(C)(C)C4)CC2)cc1 |
| 85 to 88 | Brc1ccc2ccn(Cc3ccccc3)c2c1 |
| 141 to 142 | Cc1oc(-c2ccccc2)nc1COc1cncc(COc2ccc(CC(=O)O)cc2)c1 |
| 75 to 83 | CC(Oc1ccc2c(c1)C(O)C(Oc1cccnc1)CO2)c1ccc2ccccc2n1 (centres undefined) |
| 142 to 143 | COCc1cc(-n2nc(C(F)(F)F)cc2-c2ccc(-c3ccco3)cc2)ccc1S(C)(=O)=O |
| 183 to 184 | CS(=O)(=O)c1ccc(-c2cnn(Cc3ccc([N+](=O)[O-])cc3)c(=O)c2-c2ccc(F)cc2)cc1 |
| 163 to 165 | COc1ccc(C=Cc2oc3ccc(Br)cc3c2C(C)=O)cc1 |
| 167 to 168 | N#Cc1ccccc1-c1cccc(-c2cnc3nc(C(F)(F)F)cnn23)c1F |
| 65 to 75 | CCOC(=O)N1Cc2ccccc2C2(Cc3ccccc3O2)C1 (centres undefined) |
| 156 to 158 | CN1CCN(C(=O)c2ccc(-c3ccc4nnn(Cc5ccc6ncccc6c5)c4n3)cc2)CC1 |
| 217 | COc1ccc(CCNC(=O)CC(NC(=O)CCNC(=O)c2ccc(C(=N)N)cc2)C(=O)O)cc1 (centres undefined) |
| 52 to 53 | CCOC(=O)c1ccc(OCCCCCCCCC#CCCCCOc2ccc(Cl)cc2)cc1 |
| 48 | CN(Cc1cccc(-c2ccc(CC3SC(=O)NC3=O)cc2)c1)C(=O)CCCCC(=O)c1ccccc1 (centres undefined) |
| 130 | COc1cc2c(cc1OC)C(O)N(CCc1ccccc1)C2=O (centres undefined) |
| 154 to 160 | CON=Cc1ccc2c(c1)ncn2-c1cccc(-c2nccs2)c1 |

| melting point [°C] | Structure (SMILES) |
| --- | --- |
| 165 to 172 | COc1cc2ncc(C#N)c(C)c2cc1OCc1ccccc1 |
| 156 to 157 | CCOc1nc2cccc(C(=O)O)c2n1Cc1ccc(-c2ccccc2-c2nc(=O)o[nH]2)cc1 |
| 150 to 165 | COc1ccc(CN2CCC(c3ccc(-c4cccc(N)n4)cc3)CC2)cc1OC |
| 157 to 161 | Cn1c(=O)cnn(-c2ccc(Cl)c(C(=O)NCCc3ccccc3Cl)c2)c1=O |
| 97 to 99 | COC(=O)C(=O)c1ccc(OCCCc2ccc3ccccc3c2)cc1 |
| 144 to 145 | CCOC(=O)CNC(=O)Cn1c(-c2cccc(Cl)c2)nc2cccnc21 |
| 152 to 155 | CCCCCOc1cc(C(=O)O)cc(S(N)(=O)=O)c1-c1ccccc1 |
| 222 to 225 | CCc1nc2c(N)nc3ccccc3c2n1CCS(C)(=O)=O |
| 117 to 118 | C[C@@H](n1ccn(-c2ccc(OC(F)(F)C(F)F)cc2)c1=O)[C@@]1(c2ccc(F)cc2F)CO1 |
| 101 | COc1ccc2c(c1)[C@H]1Cc3ccccc3[C@H]1N2 (relative stereo) |
| 141 to 142 | COC(=O)C1N(c2c(C)cccc2C)C(=N)C(C)N1c1c(C)cccc1C (centres undefined) |
| 136 to 138 | COC(=O)C(=O)c1ccc(OCCOc2ccc3ccccc3c2)c(F)c1 |
| 173 to 175 | CCOC(=O)c1ccc(NC(=O)C=C(c2ccccc2)c2ccc(Cl)cc2)cc1 |
| 30 to 32 | CC(C)(C)Oc1ccc(CCC(=O)OCc2ccc([N+](=O)[O-])cc2)cc1 |
| 196 to 198 | CC(COc1c(-c2ccccc2)c(=O)[nH]c2cc(Cl)ccc12)=NO |
| 159 | CC(C)c1ccc(-c2cn(C)cc(-c3ccccc3)c2=O)cc1 |
| 196 to 197 | COc1ccc(-n2c(C)ccc2-c2ccc(S(N)(=O)=O)cc2)cc1 |
| 118 to 119 | CC(=O)c1ccc(S(=O)(=O)N2CCN(C)CC2)cc1 |
| 257 to 260 | CC(=O)NC[C@H]1CN(c2ccc(C(=O)c3cnc4ncccn34)cc2)C(=O)O1 |
| 71 to 73 | COc1ccc(C(=O)c2ccon2)cc1 |
| 252 | O=C(Cc1ccccc1)Nc1ccc(NC(=O)OCc2ccccc2)c(O)c1 |

— a melting point compilation (Tetko et al.; mined from patent text by program, amines drawn as free bases though some values may be those of a salt)
